The text below walks through data of PMC11869560, “Anticancer and cancer preventive activities of shogaol and curcumin from Zingiberaceae family plants in KG-1a leukemic stem cells” (BMC Complementary Medicine and Therapies, 2025).

Converted amounts (≈) assume the structure as drawn. Like-named read-outs stand apart in the source and are kept apart here.

Holding throughout (format): cell-based, human
For experiment [1], the system named is KG-1a cells. In words: Cell death analysis by PI staining and flow cytometry in KG-1a cells. The settings on record: nocodazole 5–120 ng/mL, shogaol 6–9 µg/mL, curcumin various concentrations; time course. On the procedure: Additionally, PI staining was used to investigate the cytotoxicity of the active compounds. KG-1a cells after exposure to the active compounds with various concentration were harvested at different incubation times and washed with ice-cold PBS, pH 7.4 for 2 times. Then, the cells were resuspended with PI in PBS, pH 7.4 at a ratio of 1:10,000. The percentage of dead cells was detected by flow cytometry (CytoFLEX S, Beckman Coulter, CA, USA) and analyzed by CytExpert program (Beckman Coulter, CA, USA).
In general terms: A flow cytometer gives signals particle by particle.

For experiment [2], the system named is cleaved caspase-3 and PARP in KG-1a cells. In words: Cleaved caspase-3 and cleaved PARP in KG-1a cells by Western blotting. The settings on record: IC50 concentrations (curcumin 10 µg/mL, shogaol 3 µg/mL, nocodazole 10 ng/mL), 0–12 h. On the procedure:
(§1) KG-1a cells (1.5 × 10^5 cells/mL) were treated with compounds or extracts at different incubation times. Then, the cells were harvested and the whole proteins were extracted using a RIPA buffer (25 mM Tris-base, pH 7.6, 0.1% SDS, 1% Triton X-100, 150 mM NaCl, and 1 mM EDTA). The protein concentration was measured using the Folin-Lowry or Bradford assay. The whole protein lysates (30 µg/lane) were then separated through 7.5% SDS-PAGE under reducing conditions and then transferred to PVDF membranes. The membranes were blocked in 5% skim milk in PBS, pH 7.4 at RT for 2 h, then, target proteins were probed with specific primary antibodies (anti-WT1, anti-CD34, anti-GAPDH, anti-cleaved caspase-3, anti-cleaved PARP, anti-phospho-Akt, anti-phospho-c-Jun, anti-phospho-SAPK/JNK, and anti-YAP/TAZ) indicated in Table S10 which diluted at a ratio of 1:1,000 in PBS, pH 7.4 at RT for 2 h. After incubation, the membranes were rinsed 6 times with 0.1% Tween-20 (Sigma-Aldrich, MA, USA) in PBS, pH 7.4 (PBS-T), each time for 5 min. The reaction was followed by HRP-conjugated secondary antibody at 1:20,000 dilution in PBS, pH 7.4 at RT for 2 h, then, the membranes were rinsed 6 times for 5 min each with PBS-T. The proteins were shown using Immobilon Forte Western HRP substrate (Millipore, MA, USA). Finally, the protein band signal was quantified by using a scan densitometer (Bio-Rad Laboratories, CA, USA).

Experiment [3] concerns p-Akt (S473) in KG-1a cells. In words: p-Akt (S473) in KG-1a cells by Western blotting. The settings on record: IC50 concentration, 6 h. On the procedure: as §1, with “The reaction was followed by HRP-conjugated secondary antibody at 1:20,000 dilution in PBS, pH 7.4 at RT for 2 h, then, the membranes were rinsed 6 times for 5 min each with PBS-T. The proteins were shown using Immobilon Forte Western HRP substrate (Millipore, MA, USA).” left out, “USA). […]” for “USA).”
(In general: A western blot detects proteins with antibodies after separation by electrophoresis.)

Experiment [4] deals with KG-1a cells. In words: MTT cytotoxicity assay in KG-1a cells. The settings on record: for IC50 / IC20: Homo sapiens, KG-1a; for IC20: read-out: IC20 KG-1a (inhibitory concentration at 20% growth); for Selectivity index (SI): IC50 for normal cells (PBMCs) / IC50 for cancer cells (KG-1a). (Formazan colour is commonly taken as a measure of viable cells.)
For experiment [5], the system named is KG-1a cells. As to the kind of experiment: Trypan blue exclusion test, cell numbers of KG-1a cells. The following applies: IC20 concentrations, 48 h. On the procedure: This test was used to confirm the cytotoxicity of the test samples. The cancer cells after exposure to crude ethanolic extracts and active compounds for 48 h were harvested and washed with ice-cold PBS, pH 7.4 for 3 times. Then, the cells were resuspended with PBS, pH 7.4. The cell suspensions were diluted with PBS, pH 7.4 at the appropriate dilution before being mixed with 0.2% trypan blue solution at 1:2 dilution for cell count on a hemocytometer. From this test, the viable cells and the dead cells could also be obviously detected.
This test was used to confirm the cytotoxicity of crude ethanolic extracts and active compounds. KG-1a cells after exposure to crude ethanolic extracts and active compounds for 48 h were harvested and washed with ice-cold PBS, pH 7.4 for 3 times. Then, the cells were resuspended with PBS, pH 7.4. The cell suspensions were diluted with PBS, pH 7.4 at the appropriate dilution before being mixed with 0.2% trypan blue solution at 1:2 dilution for cell count on a hemocytometer. From this test, the viable cells and the dead cells could also be obviously detected.

Experiment [6] deals with CD34 protein expression in KG-1a cells. As to the kind of experiment: CD34 protein expression in KG-1a cells by Western blotting. The settings on record: IC20 concentrations, 48 h, normalized to GAPDH. On the procedure: as §1
Setting [7] is: 48 h, active compounds and drugs, MTT, 48 h, read-out: IC50 KG-1a.
The mark [8] stands for this setting: Table S7, KG-1a, first replicate, read-out: IC50 value R1.
Setting [9] is: Table S7, KG-1a, third replicate, read-out: IC50 value R3.
Where [10] appears, read: active compounds and drugs, MTT, 48 h.

In general, IC50 refers to the concentration that inhibits the measured activity by half. With `CCCCC/C=C/C(=O)CCc1ccc(O)c(OC)c1` [Shogaol, shogaol], the “induction of cell death (PI staining)” value in the experiment on KG-1a cells [1] is listed as “notably induced cell death at 6 h”. In addition, in experiment [2], the “time to activation of cleaved caspase-3 and PARP” value was found to be 3 h. Moreover, the “p-Akt (S473) level compared to VC” value in experiment [3] is “decreased”. The concentration for half-maximal inhibition (IC50) was determined as 2.99 ± 0.01 µg/mL (≈ 10.8 µM) in the experiment on KG-1a cells [4] (setting [7]); 2.98 µg/mL (≈ 10.8 µM) in the experiment on KG-1a cells [4] (setting [8]); 2.99 µg/mL (≈ 10.8 µM) in the experiment on KG-1a cells [4] (Table S7, KG-1a, mean of R1-R3, read-out: IC50 value Mean); 2.99 µg/mL (≈ 10.8 µM) with KG-1a cells [4] (setting [9]). Moreover, the IC20 in the experiment on KG-1a cells [4] (48 h, incubation for 48 h) turned out to be 0.12 µg/mL (≈ 0.434 µM). In the experiment on KG-1a cells [4] (48 h), the “Selectivity index (SI)” value came to 3.07. Moreover, the “IC50 KG-1a” value in the experiment on KG-1a cells [4] (setting [10]) was found to be 3 µg/mL (≈ 10.9 µM). The “decrease of total cell number compared to VC” value with KG-1a cells [5] is given as 35.32 ± 6.10%. Also, the “normalized viable cell counts” value in the experiment with KG-1a cells [5] is listed as 976.13 ± 13.69 × 10^3 cells per 1 million total cells. Further, the “decrease of CD34 protein level compared to VC” value in experiment [6] is listed as 35.93 ± 3.70%.

As for `COc1cc(/C=C/C(=O)CC(=O)/C=C/c2ccc(O)c(OC)c2)ccc1O` [Curcumin, curcumin], the “induction of cell death (PI staining)” value in the experiment with KG-1a cells [1] is reported as “gradually induced cell death after 12 h of incubation”. For the same compound, in experiment [2], the “time to activation of cleaved caspase-3 and PARP” value came to 6 h. Further, the “p-Akt (S473) level compared to VC” value in experiment [3] is reported as “decreased”. Moreover, the half-inhibitory concentration (IC50) in the experiment with KG-1a cells [4] (setting [7]) came out at 10 µg/mL (≈ 27.1 µM); with KG-1a cells [4] (setting [8]) it was 10.4 µg/mL (≈ 28.2 µM); with KG-1a cells [4] (Table S7, KG-1a, second replicate, read-out: IC50 value R2), 10.6 µg/mL (≈ 28.7 µM); in the experiment with KG-1a cells [4] (setting [9]) it was 10.6 µg/mL (≈ 28.8 µM). Further, in the experiment on KG-1a cells [4] (48 h, incubation for 48 h), the IC20 stood at 3.51 ± 0.59 µg/mL (≈ 9.53 µM). Further, the “Selectivity index (SI)” value with KG-1a cells [4] (48 h) is recorded as 1.31; in the experiment on KG-1a cells [4] (48 h, listed as curcumin) it was “greater than 1”. In addition, the “IC50 KG-1a” value with KG-1a cells [4] (setting [10]) is listed as 10.52 ± 0.12 µg/mL (≈ 28.6 µM). Also, the “IC20 KG-1a (inhibitory concentration at 20% growth)” value in the experiment on KG-1a cells [4] (incubation for 48 h) amounted to 3 µg/mL (≈ 8.14 µM). The “decrease of total cell number compared to VC” value in the experiment with KG-1a cells [5] turned out to be 40.75 ± 12.78%. The “normalized viable cell counts” value with KG-1a cells [5] is given as 954.40 ± 3.19 × 10^3 cells per 1 million total cells. Also, the “decrease of CD34 protein level compared to VC” value in experiment [6] turned out to be 29.29 ± 2.43%.
